Some results are limits rather than exact numbers.

One series concerns the target wild-type HIV protease (Human immunodeficiency virus type 1 group M subtype B, UniProt P12497). The experiment in a line: cell-based. Here is the method:
(§1) Stock solutions of the FDA-approved HIV protease inhibitors were prepared by solubilizing the drugs in 100% dimethyl sulfoxide (DMSO) at 100 mM. A single colony of the cells bearing the respective plasmid, namely pTF-PR^WT or pTF-PR^mutant, was inoculated into 2 ml of Luria-Bertani (LB) medium with 100 μg of ampicillin/ml and grown overnight at 37° C. The culture was diluted 100-fold with fresh Luria-Bertani medium containing 100 μg of ampicillin/ml and incubated at 37° C. for 2 h until the optical density at 630 nm (OD630) of the cells reached 0.6. The cells were then induced for protein expression with 0.2% arabinose and simultaneously treated with either HIV protease inhibitors dissolved in 2% DMSO at the indicated concentrations or 2% DMSO alone as the negative control. After incubation for an additional 3 h at 30° C., the cells were collected for Western blot analysis of proteins.
Cell-Based β-galactosidase Activity Assay. Cell-based β-galactosidase activity assays were performed basically as described in Example 4. E. coli cells bearing each of the expression plasmids were grown as described, except that after incubation at 37° C. for 2 h to an OD630 of 0.6, the cells were transferred in triplicate sets to the wells of 96-well microplates. The cells were subjected to simultaneous induction for recombinant protein expression as well as drug treatment with HIV protease inhibitors at the indicated concentrations in 2% DMSO. For the screening of the compound library generated by the amide-forming reaction (see Example 5), DMF was used instead of DMSO. After incubation for an additional 3 h at 30° C., the cells were made permeable for the entry of the β-galactosidase substrate, (ortho-nitrophenyl-β-D-galactopyranoside (ONPG)), by diluting the cells in assay buffer (10 mM NaP, pH 7.3, 10 mM NaCl, 1 mM MgSO4, 5 mM β-mercaptoethanol) that contained 50 μg of polymyxin B sulfate/ml and 2%Triton X-100 (Schupp et al., BioTechniques 19:18-20 (1995)). The cells were then incubated for 5 min at room temperature in 96-well microplates. After the OD630 of the cells was determined by using an Ultramark microplate imaging system (Bio-Rad, Hercules, Calif.), ONPG was added at a final concentration of 200 μM to start the enzymatic reactions at 37° C. Changes in the OD415, indicating the production of ortho-nitrophenol, were continuously monitored with the Ultramark microplate imaging system. The linear portion of the progression curve was used to determine the initial velocity with MATLAB (The MathWorks Inc., Natick, Mass.). The difference in OD415 (ΔA) was converted to the increase in product concentration (ΔC) by using the equation ΔA=ε(ΔC)(L), where L is the light path of 0.4 cm and the extinction coefficient (ε) of ortho-nitrophenol was 3,500 M^−1 cm^−1 under the assay conditions. The β-galactosidase activity was determined as the number of micromoles of ortho-nitrophenol produced per minute at 37° C. The β-galactosidase activity was then normalized against the amount of total cellular proteins, which was estimated by assuming that an OD630 unit corresponds to 1.4×10^9 cells and that every 10^9 cells yield approximately 150 μg of proteins (Pardee et al., J. Mol. Biol. 1:165-68 (1959)).
ββ-galactosidase activity assays were performed as described in Example 8. After drug treatment for 3 h, the cells were processed for detection of β-galactosidase activity of whole cells in 96-well microplates as described. Cells coexpressing TF-PR^WT and β-GalPR were treated with HIV protease inhibitors at the concentrations between 0 and 400 μM. β-galactosidase activities (micromoles per minute per milligram of total protein) in the treated E. coli cells were determined.
The β-galactosidase activity detected in E. coli coexpressing TF-PR^WT and β-Gal^PR in the absence of HIV protease inhibitors was referred to as 0% inhibition.

The next series has as its system D30N HIV strain. The conditions noted are these: concentration inhibiting 90% of mammalian cell death induced by HIV infection; Patick et al.; read-out: EC90 (μM) from standard antiviral assay with: D30N HIV strain; cited from earlier work.
Another series deals with Wild-type HIV. Particulars: concentration inhibiting 90% of mammalian cell death induced by HIV infection; Patick et al.; read-out: EC90 (μM) from standard antiviral assay with: Wild-type HIV; cited from earlier work.
The target in the next series is T1, D30N HIV protease (Human immunodeficiency virus type 1 group M subtype B, UniProt P12497, D518N).
T1 construct: used to replace the wild-type HIV protease domain in the two-cistron expression construct; Met-Gly (my reading of primer TF-F) + native transframe region (56 aa directly upstream of the protease in Gag-Pol) (N); Lys-Glu-Glu (my translation of primer PR-R: Shine-Dalgarno in frame before the stop codon) (C); expressed in transfected cells; host or cells: E. coli bearing plasmid pTF-PR^D30N
The experiment in a line: cell-based. Further details: species or system HIV-1. Here is the method: (§2) Cell-Based β-galactosidase Activity Assay. Cell-based β-galactosidase activity assays were performed basically as described in Example 4. E. coli cells bearing each of the expression plasmids were grown as described, except that after incubation at 37° C. for 2 h to an OD630 of 0.6, the cells were transferred in triplicate sets to the wells of 96-well microplates. The cells were subjected to simultaneous induction for recombinant protein expression as well as drug treatment with HIV protease inhibitors at the indicated concentrations in 2% DMSO. For the screening of the compound library generated by the amide-forming reaction (see Example 5), DMF was used instead of DMSO. […] After the OD630 of the cells was determined by using an Ultramark microplate imaging system (Bio-Rad, Hercules, Calif.), ONPG was added at a final concentration of 200 μM to start the enzymatic reactions at 37° C. Changes in the OD415, indicating the production of ortho-nitrophenol, were continuously monitored with the Ultramark microplate imaging system. […] The β-galactosidase activity was determined as the number of micromoles of ortho-nitrophenol produced per minute at 37° C. […]

Series [1] concerns the target T2, HIV protease precursor TF-PR^WT (Human immunodeficiency virus type 1 group M subtype B, UniProt P12497, L434F).
T2 construct: Met-Gly (my reading of primer TF-F) + native transframe region (TFP 8 aa + p6pol 48 aa = 56 aa directly upstream of the protease in Gag-Pol); removed by autoprocessing (N, cleaved yes); expressed in transfected cells; host or cells: E. coli DH5α bearing plasmid pTF-PR^WT (pBAD, arabinose-induced)
The experiment in a line: cell-based. Further details: species or system HIV-1. As for the experimental part: as §1

A further series deals with T3, I84V HIV protease (Human immunodeficiency virus type 1 group M subtype B, UniProt P12497, I572V).
T3 construct: used to replace the wild-type HIV protease domain in the two-cistron system to construct the plasmid pTF-PR^I84V; Met-Gly (my reading of primer TF-F) + native transframe region (56 aa directly upstream of the protease in Gag-Pol) (N); Lys-Glu-Glu (my translation of primer PR-R: Shine-Dalgarno in frame before the stop codon) (C); expressed in transfected cells; host or cells: E. coli bearing plasmid pTF-PR^I84V
Description: E. coli-based assay system: β-galactosidase activity, cells co-expressing TF-PR^I84V and β-Gal^PR. The class given is cell-based, HIV-1. As for the experimental part: as §2

As to pepstatin A, on wild-type HIV protease (E. coli cells coexpressing TF-PR^WT and β-Gal^PR), the “inhibition of β-galactosidase activity (so in the source)” value was “did not inhibit”. Also, the cell permeability result on wild-type HIV protease (E. coli cells, inferred from lack of inhibition) was “low cell permeability”. Besides, the “inhibitory effects in the assay procedures described herein” value on wild-type HIV protease (up to 5 mM) is “failed to exert any inhibitory effects”.

Consider `CC(C)(C)NC(=O)[C@@H]1C[C@@H]2CCCC[C@@H]2CN1C[C@@H](O)[C@H](Cc1ccccc1)NC(=O)[C@H](CC(N)=O)NC(=O)c1ccc2ccccc2n1` [SQV, saquinavir], for which the EC90 (in general, the concentration needed for an effect of 90%) is 0.01 µM in the series on D30N HIV strain and 0.03 µM in the series on Wild-type HIV.

With `CC(C)c1nc(CN(C)C(=O)N[C@H](C(=O)N[C@@H](Cc2ccccc2)C[C@H](O)[C@H](Cc2ccccc2)NC(=O)OCc2cncs2)C(C)C)cs1` [RTV, ritonavir], the EC90 in the series with D30N HIV strain was 0.01 µM; in the series with Wild-type HIV it was 0.05 µM.

On to `Cc1c(O)cccc1C(=O)N[C@@H](CSc1ccccc1)[C@H](O)CN1C[C@H]2CCCC[C@H]2C[C@H]1C(=O)NC(C)(C)C` [NFV, nelfinavir], for which the IC50 – broadly, the concentration that inhibits the measured activity by half – against D30N HIV protease was above 400000 nM; on wild-type HIV protease, 48400 ± 4800 nM; in series [1] it was 1600 to 8000 nM. Also, the EC90 in the series with D30N HIV strain is 0.18 µM; with Wild-type HIV, 0.03 µM. Further, the inhibition – broadly, the change of the read-out against control, counted positive when it falls – at 400 µM on wild-type HIV protease (read-out: % inhibition against the wild-type HIV protease) turned out to be 75%.

On to `CC(C)CN(C[C@@H](O)[C@H](Cc1ccccc1)NC(=O)O[C@H]1CCOC1)S(=O)(=O)c1ccc(N)cc1` [APV, amprenavir], for which the IC50 was 35900 ± 17700 nM at D30N HIV protease, 280000 ± 39000 nM against I84V HIV protease, 53400 ± 17400 nM at wild-type HIV protease and 1600 to 8000 nM in series [1].

With `CC(C)(C)NC(=O)[C@@H]1CN(Cc2cccnc2)CCN1C[C@@H](O)C[C@@H](Cc1ccccc1)C(=O)N[C@H]1c2ccccc2C[C@H]1O` [IDV, indinavir], the EC90 in the series with D30N HIV strain is 0.01 µM; with Wild-type HIV, 0.06 µM.

These data come from patent publication US20050244819A1, “Assay system for screening protease inhibitors” (priority 2004, published 2005).
